Key:
endogenous human TRPA1 = molecular target: T1, endogenous human TRPA1 (Homo sapiens, UniProt O75762); assay: Whole cell current in untransfected CCD-18Co cells; type: cell-based; conditions: without expression of zTrpa1b, violet and green light
T1 construct: human colonic fibroblast cells, CCD-18Co, which express human TRPA1 endogenously; endogenous in cells; host or cells: CCD-18Co (ATCC), untransfected
Description: Immortalized HEK293T cells or human colonic fibroblast cells (CCD-18Co; ATCC) were used. HEK293T cells were plated on […] cover slips and transiently transfected with 10 μg of Trpa1b plasmid (pCMV-zTrpa1b-FLAG) (SEQ ID NO:3) and 5 μg of mNeonGreen cDNA (Allele Biotechnology), then grown in a 6 cm plate for 24-48 h. CCD-18Co were cultured in Eagle's minimal essential medium with 10% FBS, 1× penicillin and streptomycin. CCD-18Co cells were plated on 12 mm cover slips and transiently transfected with 5 μg of zTrpa1b plasmid (pCMV-zTrpa1b-FLAG) together with 5 μg of mNeonGreen cDNA (Allele Biotechnology), then grown in a […] plate for 48-72 h. After this time, the cover slips were transferred to a recording chamber containing an extracellular solution composed of 145 mM sodium gluconate, 4 mM KCl, 3 mM MgCl2, 10 mM D-glucose, 10 mM HEPES; pH 7.4 adjusted with NaOH. The internal solution contained 122 mM cesium methane sulfonate, 1.8 mM MgCl2, 9 mM EGTA, 14 mM creatine phosphate (sodium salt), 4 mM Mg-ATP, 0.3 mM Na-GTP, 10 mM HEPES, pH 7.2 adjusted with CsOH. […] Whole cell currents were measured on an Axopatch 200B amplifier (Molecular De-vices) under the control of pClamp software. […] Basal Trpa1b whole cell currents were measured with a ramp protocol (˜100 to +100 mV, at a holding potential of 0 mV). […] The p values were calculated using a two-tailed, paired Student's t-test.

[1] = tested on: wild-type zebrafish larvae; assay: Behavioral assay: light-induced motion response of wild-type larvae; type: in vivo, Zebrafish (Danio rerio)
Description: A total of 1,000 compounds were selected from the ChemBridge Corp. catalog. Compounds were dissolved in DMSO at a stock concentration of 1 μg/μL (˜1.5 mM). The library was screened at a 1:100 dilution in E3 solution for a final concentration of ˜15 μM. Negative controls were treated with an equal volume of DMSO. Groups of 3 larvae at 3 days post fertilization (dpf) were distributed into the wells of 96-well clear bottom black microplates (07-200-567; Fisher Scientific) in 150 μL E3 before the addition of small molecules. Stock solutions of compounds were added directly to zebrafish in the wells of a 96 well plate (Corning 3631), mixed, and allowed to incubate for 1 h in the dark at 28.5° C. prior to behavioral evaluation in the behavioral assay. Ordering information: 1 (5533696; ChemBridge); 3 (5538408; ChemBridge).
Larvae in each of the wells were exposed to four 1 second flashes of light stimulus in the following order: 450-500 nm (WL1), 415-455 nm (WL2), 352-402 nm (WL3), white light (WL4), with a 5 second inter-stimulus interval. Digital video recording was performed for 5 seconds before the first light stimuli and continued throughout the stimulation sequence. Band pass filters (Semrock FF02-475/50, FF02-435/40, FF01-377/50) were used to restrict the excitation light to the indicated wavelengths. […] 290 frames of digital video were recorded per well at 10 FPS using an EMCCD camera (C9100; Hamamatsu) mounted on an inverted compound microscope (AxioObserver A1; Zeiss) with a NA 0.03 1.25× objective and a barrier with a 0.7 mm diameter opening to restrict light scattering to the sample. MetaMorph software (Molecular Devices) was used to control the execution of TTL signals and camera capture using the built-in stream acquisition with trigger function. Each video was saved for review. Light stimuli were generated with an ozone free 300-Watt xenon bulb housed in a Lambda LS illuminator (Sutter Instruments). A dichroic mirror (T510LPXRXT; Chroma) was used for appropriate excitation of samples and bright field acquisition. Schott longpass absorption glass (RG610; Chroma) was added in the transmitted light path to reduce unwanted excitation to the well and to provide sufficient light for video recording. All behavioral experiments were conducted at room temperature. […]
To analyze digital video recordings, custom MetaMorph software scripts were used to automatically threshold the video to identify the area of larvae in each frame. Threshold images of the frames after each light activation event were overlaid to calculate a new combined threshold area. The motion index was calculated as the percentage change between the threshold area in the frame right before light activation and the new combined threshold area. This motion index correlates with the overall amount of motion in the well.

[2] = tested on: zebrafish Trpa1a (zTrpa1a); assay: Rescue experiment, Trpa1b−/− embryos expressing zTrpa1a in Rohon-beard neurons; type: in vivo; conditions: 20 μM, motion within 5 s after 1 s WL3
Description: For Trpa1b ohnolog and paralog rescue experiments, Trpa1b^−/− embryos were injected with ngn1:zTrpa1b-2A-mCherry (partial plasmid sequence in SEQ ID NO:5), ngn1:zTrpa1a-2A-mCherry, ngn1:hTRPA1-2A-EGFP or ngn1:mTRPA1-2A-mCherry at the 1-cell stage for mosaic Rohon-beard neuron expression. Embryos were screened at 2 dpf for fluorescent expression in Rohon-beard neurons, incubated with 20 μM TRPswitch-B for 1 hr and decapitated posterior to the eyes right before experiments. NA 0.25 5× objective and 1 s WL3 light illumination was used.
To test the potential cross activity of TRPswitch-B on the zebrafish ohnolog Trpa1a and on mammalian orthologs, zebrafish Trpa1a, mouse TRPA1 or human TRPA1 were transiently re-expressed in the Rohon-beard neurons of mutant Trpa1b^−/− zebrafish and performed light-induced motion response experiments in the presence of TRPswitch-B. Rescue experiments were performed in Trpa1b^−/− zebrafish with transient mosaic re-expression of zebrafish Trpa1b (zTrpa1b), zebrafish Trpa1a (zTrpa1a), mouse TRPA1 (mTRPA1) or human TRPA1 (hTRAP1) in Rohon-beard neurons. Embryos were pre-treated with 20 μM TRPswitch-B and decapitated right before light stimulation to eliminate the light response mediated by the retina (Table 5). […]

T1 sequence (O75762 whole entry): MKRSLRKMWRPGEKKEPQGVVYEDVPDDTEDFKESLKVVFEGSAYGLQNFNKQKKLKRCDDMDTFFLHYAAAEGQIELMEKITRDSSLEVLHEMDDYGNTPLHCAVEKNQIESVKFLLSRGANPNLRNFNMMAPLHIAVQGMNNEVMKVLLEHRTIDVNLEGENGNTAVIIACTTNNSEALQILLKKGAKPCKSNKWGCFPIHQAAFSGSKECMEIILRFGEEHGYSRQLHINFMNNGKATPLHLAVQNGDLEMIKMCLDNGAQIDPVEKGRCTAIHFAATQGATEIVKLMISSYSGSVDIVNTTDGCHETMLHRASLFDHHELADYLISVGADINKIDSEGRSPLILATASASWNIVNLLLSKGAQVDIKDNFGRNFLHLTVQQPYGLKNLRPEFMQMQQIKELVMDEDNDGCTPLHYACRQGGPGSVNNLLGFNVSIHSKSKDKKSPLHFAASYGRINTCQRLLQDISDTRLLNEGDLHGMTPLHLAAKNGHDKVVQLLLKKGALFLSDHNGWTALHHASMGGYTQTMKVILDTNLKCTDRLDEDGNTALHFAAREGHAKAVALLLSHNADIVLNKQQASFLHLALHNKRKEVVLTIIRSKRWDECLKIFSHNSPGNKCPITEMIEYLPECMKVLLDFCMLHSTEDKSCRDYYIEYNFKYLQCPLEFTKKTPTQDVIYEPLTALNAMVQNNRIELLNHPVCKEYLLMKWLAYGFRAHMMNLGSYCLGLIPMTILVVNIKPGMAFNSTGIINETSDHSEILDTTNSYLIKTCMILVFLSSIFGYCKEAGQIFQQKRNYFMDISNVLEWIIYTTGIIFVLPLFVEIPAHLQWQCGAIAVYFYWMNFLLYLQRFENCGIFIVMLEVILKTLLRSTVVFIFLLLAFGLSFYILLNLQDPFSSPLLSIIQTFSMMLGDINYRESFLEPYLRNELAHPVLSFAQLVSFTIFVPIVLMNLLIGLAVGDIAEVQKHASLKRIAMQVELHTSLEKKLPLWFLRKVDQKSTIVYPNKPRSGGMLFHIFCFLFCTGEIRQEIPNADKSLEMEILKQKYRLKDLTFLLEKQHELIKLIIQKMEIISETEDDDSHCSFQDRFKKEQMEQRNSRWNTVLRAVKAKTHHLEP

Cc1nn(C)c(C)c1/N=N/c1ccc(NC(=O)c2cccs2)cc1NC(=O)c1cccs1 [Compound 9, (E)-N,N′-(4-((1,3,5-trimethyl-1H-pyrazol-4-yl)diazenyl)-1,3-phenylene)bis(thiophene-2-carboxamide)]
light induced photocurrent / cross reaction with endogenous human TRPA1 (endogenous human TRPA1): does not cross react
light-induced motion response (in vivo activity) ([1]; 3 dpf wild-type larvae, 1 s flashes WL1-WL4): comparable biological response to TRPswitch-A
effect of DABCO on light-induced motion response ([1]; DABCO, singlet oxygen quencher): no effect
% response [2]: 0%

— patent publication US20220280644A1, “"TRPswitch" - A STEP FUNCTION CHEMO-OPTOGENETIC LIGAND” (UNIVERSITY OF UTAH RESEARCH FOUNDATION, priority 2019, published 2022)
